For 38 compounds, IC50 results are on record in patent publication US7803801B2, “Aminopyridine compounds having Syk inhibitory activity” (Japan Tobacco, Inc., priority 2005, dated 2010).

Experiment [1] deals with GST-Syk Full Protein (human) (Homo sapiens, UniProt P43405). Put plainly: Syk kinase inhibition test (HTRF method). The experiment is classed as biochemical. An outline of the steps: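 Human GST-Syk full-length (6.4 nM) phosphorylated biotin-EDPDYEWPSA-NH2 (250 nM) with 100 μM ATP in HEPES pH 7.0/MgCl2 buffer, 2% DMSO, 30 min at room temperature. EDTA stop, then HTRF detection (streptavidin-XL665, Eu anti-phosphotyrosine) after 1 h; 665/620 ratio read.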
A general note: In TR-FRET formats the signal depends on donor and acceptor labels being close together.

The test system of experiment [2] is cultured human mast cells. Put plainly: Degranulation inhibition test using cultured human mast cells (IgE cross-linking, β-Hexosaminidase release). The following applies: Mast cell, cultured human mast cells, read-out: human degranulation ave. IC50. It counts as cell-based. A digest of the protocol:
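CD34+ cord-blood cells cultured ≥8 weeks with SCF/IL-6/IL-3; FcεRI primed 5 days with rhIL-4 (1 ng/mL) and hIgE (0.5 μg/mL). Compound (0.1% DMSO) preincubated 10 min at 37 °C, then anti-IgE (final 10 μg/mL) 30 min; released β-hexosaminidase read at 405 nm versus total lysate, IC50 (M).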

The mark [3] stands for this setting: HTRF, 100 μM ATP, 30 min room temperature, average, read-out: sykHTRF ave IC50.
[4] abbreviates: anti-hIgE stimulation, β-Hexosaminidase index, average.
Setting [5] is: Tables 2-x, thiophene compounds B, read-out: sykHTRK ave IC50.
The mark [6] stands for this setting: Tables 2-x, thiophene compounds B.
[7] abbreviates: Tables 1-x, compounds A, read-out: sykHTRF ave IC50.

In general, pIC50 refers to −log10 of the IC50, conventionally taken in molar units.

pIC50: −log10 of the molar value. Where a name gives a salt, the structure may show the parent alone. Read-outs that look alike come from different tables or passages of the source. A value given as a limit tells only on which side of the number the result lay.

Regarding `Cc1ccnc(Nc2cccc(-c3sc([C@H](C)N)nc3C)n2)c1` [Compound A-104], the values for the negative logarithm of the IC50 (pIC50) in experiment [1] (setting [3]) and in experiment [2] (setting [4]) were 6.00 to 7.00 and less than 6.00, respectively.

As for `Cc1ccnc(Nc2cccc(-c3cnc([C@H]4CC[C@H](CN5CCCC(O)C5)CC4)s3)n2)c1` (stereo partly shown) [Compound A-315], the pIC50 in experiment [1] (setting [3]) is 6.00 to 7.00; in experiment [2] (setting [4]) it was less than 6.00.

`C/C(=N\OCCO)c1ccc(-c2cccc(Nc3cc(C)ccn3)n2)s1` [Compound B-38, 1-{5-[6-(4-methylpyridin-2-ylamino)pyridin-2-yl]thiophen-2-yl}ethanone O-(2-hydroxyethyl)oxime]: the pIC50 in experiment [1] (setting [5]) is greater than 7.00; in experiment [2] (setting [6]), 6.00 to 7.00.

On to `CC(=O)N1CCC[C@H]1c1ncc(-c2cccc(Nc3cc(C)ccn3)n2)s1` [Compound A-48], for which the pIC50 in experiment [1] (setting [3]) and in experiment [2] (setting [4]) was 6.00 to 7.00 in each case.

In the case of `Cc1ccnc(Nc2cccc(-c3cnc(CCCCCN)s3)n2)c1` [Compound A-128, 5-{5-[6-(4-methylpyridin-2-ylamino)pyridin-2-yl]thiazol-2-yl}pentylamine], the pIC50 in experiment [1] (setting [3]) was greater than 7.00; in experiment [2] (setting [4]), less than 6.00.

As to `Cc1ccnc(Nc2cccc(-c3cnc(N(CC(N)=O)C[C@H]4CC[C@H](C(=O)O)CC4)s3)n2)c1` [Compound A-599, trans-4-[(N-carbamoylmethyl-N-{5-[6-(4-methylpyridin-2-ylamino)pyridin-2-yl]thiazol-2-yl}amino)methyl]cyclohexanecarboxylic acid], the pIC50 in experiment [1] (setting [7]) is greater than 7.00; in experiment [2] (Tables 1-x, compounds A), less than 6.00.

Regarding `CC(=O)c1ccc(-c2cccc(Nc3cc(OC(C)C)ncn3)n2)s1` [Compound B-30, 1-{5-[6-(6-isopropoxypyrimidin-4-ylamino)pyridin-2-yl]thiophen-2-yl}ethanone], the figures for the pIC50 in experiment [1] (setting [5]) and in experiment [2] (setting [6]) were greater than 7.00 and less than 6.00, respectively.

With `Cc1ccnc(Nc2cccc(-c3cnc(N(C)Cc4ccc(C(=O)O)cc4Cl)s3)n2)c1` [Compound A-604, 3-chloro-4-[(N-methyl-N-{5-[6-(4-methylpyridin-2-ylamino)pyridin-2-yl]thiazol-2-yl}amino)methyl]benzoic acid dihydrochloride], the pIC50 is greater than 7.00 in experiment [1] (setting [7]) and 6.00 to 7.00 in experiment [2] (Tables 1-x, compounds A).

On to `Cc1ccnc(Nc2cccc(-c3cnc(CCCCO)s3)n2)c1` [Compound A-132, 4-{5-[6-(4-methylpyridin-2-ylamino)pyridin-2-yl]thiazol-2-yl}butan-1-ol], for which the pIC50 in experiment [1] (setting [3]) is greater than 7.00; in experiment [2] (setting [4]) it was 6.00 to 7.00.

As to `Cc1ccnc(Nc2cccc(-c3cnc([C@H]4CC[C@H](c5noc(=O)[nH]5)CC4)s3)n2)c1` [Compound A-325, 3-(trans-4-{5-[6-(4-methylpyridin-2-ylamino)pyridin-2-yl]thiazol-2-yl}cyclohexyl)-4H-[1,2,4]oxazol-5-one], the negative logarithm of the IC50 (pIC50) in experiment [1] (setting [3]) was greater than 7.00; in experiment [2] (setting [4]), 6.00 to 7.00.

`CNC(=O)CC1CCN(c2ncc(-c3cccc(Nc4cc(C)ccn4)n3)s2)CC1` [Compound A-505, N-methyl-2-(1-{5-[6-(4-methylpyridin-2-ylamino)pyridin-2-yl]thiazol-2-yl}piperidin-4-yl)acetamide]: the negative logarithm of the IC50 (pIC50) in experiment [1] (setting [7]) was greater than 7.00; in experiment [2] (Tables 1-x, compounds A), 6.00 to 7.00.

With `Cc1ccnc(Nc2cccc(-c3cnc([C@@H](N)CCC(=O)O)s3)n2)c1` [Compound A-106], the pIC50 in experiment [1] (setting [3]) is 6.00 to 7.00; in experiment [2] (setting [4]), less than 6.00.

`Cc1ccnc(Nc2cccc(-c3cnc([C@H]4CC[C@H](C(=O)N[C@H]5CC[C@H](O)CC5)CC4)s3)n2)c1` [Compound A-305]: the negative logarithm of the IC50 (pIC50) in experiment [1] (setting [3]) and in experiment [2] (setting [4]) was 6.00 to 7.00 throughout.

For `COC(=O)CCCc1ncc(-c2cccc(Nc3cc(C)ccn3)n2)s1` [Compound A-130], the pIC50 in experiment [1] (setting [3]) is 6.00 to 7.00; in experiment [2] (setting [4]), less than 6.00.

In the case of `CC(=O)N1CCC(Nc2ncc(-c3cccc(Nc4cc(C)ccn4)n3)s2)CC1` [Compound A-514, 1-(4-{5-[6-(4-methylpyridin-2-ylamino)pyridin-2-yl]thiazol-2-ylamino}piperidin-1-yl)ethanone], the negative-log IC50 (pIC50) in experiment [1] (setting [7]) is greater than 7.00; in experiment [2] (Tables 1-x, compounds A), 6.00 to 7.00.

With `Cc1ccnc(Nc2cccc(-c3cnc(CNCCO)s3)n2)c1` [Compound A-216], the pIC50 was 6.00 to 7.00 in experiment [1] (setting [3]) and less than 6.00 in experiment [2] (setting [4]).

In the case of `CC(=O)N[C@@H](Cc1ccc(NC(=O)OCc2ccccc2)cc1)c1ncc(-c2cccc(Nc3cc(C)ccn3)n2)s1` [Compound A-178], the pIC50 in experiment [1] (setting [3]) and in experiment [2] (setting [4]) was less than 6.00 throughout.

Take `Cc1ccnc(Nc2cccc(-c3cnc([C@H](COCc4ccccc4)NC(=O)OC(C)(C)C)s3)n2)c1` [Compound A-43]: the pIC50 in experiment [1] (setting [3]) and in experiment [2] (setting [4]) was less than 6.00 throughout.

As to `Cc1ccnc(Nc2cccc(-c3cnc(N(C)[C@H]4CC[C@H](O)CC4)s3)n2)c1` [Compound A-480, trans-4-(N-methyl-N-{5-[6-(4-methylpyridin-2-ylamino)pyridin-2-yl]thiazol-2-yl}amino)cyclohexanol], the pIC50 in experiment [1] (setting [7]) was greater than 7.00; in experiment [2] (Tables 1-x, compounds A) it was 6.00 to 7.00.

In the case of `Cc1ccnc(Nc2cccc(-c3cnc(CC(C)(C)CC(=O)O)s3)n2)c1` [Compound A-157], the negative logarithm of the IC50 (pIC50) in experiment [1] (setting [3]) is 6.00 to 7.00; in experiment [2] (setting [4]) it was less than 6.00.

On to `Cc1ccnc(Nc2cccc(-c3cnc(C(=O)NC(CO)CO)s3)n2)c1` [Compound A-72], for which the negative logarithm of the IC50 (pIC50) in experiment [1] (setting [3]) was 6.00 to 7.00; in experiment [2] (setting [4]), less than 6.00.

Regarding `CONC(=O)c1ccc(-c2cccc(Nc3cc(C)ccn3)n2)s1` [Compound B-64], the negative logarithm of the IC50 (pIC50) in experiment [1] (setting [5]) and in experiment [2] (setting [6]) was 6.00 to 7.00 in each case.

As for `Cc1ccnc(Nc2cccc(-c3cnc(N4CCC(C(=O)N(C)C)CC4)s3)n2)c1` [Compound A-434], the pIC50 in experiment [1] (setting [7]) is 6.00 to 7.00; in experiment [2] (Tables 1-x, compounds A), less than 6.00.

Regarding `Cc1ccnc(Nc2cccc(-c3cnc(CN4C(=O)CN(Cc5ccccc5)CC4=O)s3)n2)c1` [Compound A-391], the negative logarithm of the IC50 (pIC50) was less than 6.00 in experiment [1] (setting [7]) and less than 6.00 in experiment [2] (Tables 1-x, compounds A).

As for `CC(=O)N1CCC(N(C)c2ncc(-c3cccc(Nc4cc(Cl)ccn4)n3)s2)CC1` [Compound A-536, 1-[4-(N-{5-[6-(4-chloropyridin-2-ylamino)pyridin-2-yl]thiazol-2-yl}-N-methylamino)piperidin-1-yl]ethanone], the pIC50 in experiment [1] (setting [7]) was greater than 7.00; in experiment [2] (Tables 1-x, compounds A) it was 6.00 to 7.00.

In the case of `Cc1ccnc(Nc2cccc(-c3ccc(NC(=O)OC(C)(C)C)s3)n2)c1` [Compound B-34], the values for the negative logarithm of the IC50 (pIC50) in experiment [1] (setting [5]) and in experiment [2] (setting [6]) were 6.00 to 7.00 and less than 6.00, respectively.

Take `Cc1ccnc(Nc2cccc(-c3cnc([C@H]4CC[C@H](C(=O)O)CC4)s3)n2)c1` [Compound A-7, trans-4-{5-[6-(4-methylpyridin-2-ylamino)pyridin-2-yl]thiazol-2-yl}cyclohexanecarboxylic acid]: the pIC50 was greater than 7.00 in experiment [1] (setting [3]) and less than 6.00 in experiment [2] (setting [4]).

Turning to `Cc1ccnc(Nc2cccc(-c3cnc([C@H]4CC[C@H](C(=O)N5C[C@@H](O)[C@@H](O)C5)CC4)s3)n2)c1` [Compound A-174, ((3R,4S)-3,4-dihydroxypyrrolidin-1-yl)-(trans-4-{5-[6-(4-methylpyridin-2-ylamino)pyridin-2-yl]thiazol-2-yl}cyclohexyl)methanone], the pIC50 in experiment [1] (setting [3]) was greater than 7.00; in experiment [2] (setting [4]), 6.00 to 7.00.

Take `CNC(=O)C1(C)CCN(c2ncc(-c3cccc(Nc4cc(C)ccn4)n3)s2)CC1` [Compound A-501, N-methyl-4-methyl-1-{5-[6-(4-methylpyridin-2-ylamino)pyridin-2-yl]thiazol-2-yl}piperidine-4-carboxamide]: the pIC50 was greater than 7.00 in experiment [1] (setting [7]) and 6.00 to 7.00 in experiment [2] (Tables 1-x, compounds A).

As for `Cc1ccnc(Nc2cccc(-c3cnc([C@H]4CC[C@H](C(=O)NCCc5ccccn5)CC4)s3)n2)c1` [Compound A-279], the negative-log IC50 (pIC50) in experiment [1] (setting [3]) and in experiment [2] (setting [4]) was 6.00 to 7.00 in each case.

Regarding `Cc1ccnc(Nc2cccc(-c3cnc(C4CCN(C(=O)N(C)C)CC4)s3)n2)c1` [Compound A-371], the negative-log IC50 (pIC50) in experiment [1] (setting [3]) and in experiment [2] (setting [4]) was 6.00 to 7.00 in each case.

As to `CC(=O)O[C@@H](c1ccccc1)c1ncc(-c2cccc(Nc3cc(C)ccn3)n2)s1` [Compound A-318], the figures for the negative logarithm of the IC50 (pIC50) in experiment [1] (setting [3]) and in experiment [2] (setting [4]) were 6.00 to 7.00 and less than 6.00, respectively.

`NC(=O)C1CCN(c2ncc(-c3cccc(Nc4cc(Cl)ccn4)n3)s2)CC1` [Compound A-518, 1-{5-[6-(4-chloropyridin-2-ylamino)pyridin-2-yl]thiazol-2-yl}piperidine-4-carboxamide]: the pIC50 in experiment [1] (setting [7]) is greater than 7.00; in experiment [2] (Tables 1-x, compounds A), greater than 7.00.

Turning to `Cc1ccnc(Nc2cccc(-c3cnc(CCc4ccc(NC(=O)CO)cc4)s3)n2)c1` [Compound A-237, 2-hydroxy-N-[4-(2-{5-[6-(4-methylpyridin-2-ylamino)pyridin-2-yl]thiazol-2-yl}ethyl)phenyl]acetamide], the negative logarithm of the IC50 (pIC50) was greater than 7.00 in experiment [1] (setting [3]) and 6.00 to 7.00 in experiment [2] (setting [4]).

`CC(=O)N[C@@H](Cc1ccc(O)cc1)c1ncc(-c2cccc(Nc3cc(C)ccn3)n2)s1` [Compound A-99]: the negative logarithm of the IC50 (pIC50) in experiment [1] (setting [3]) and in experiment [2] (setting [4]) was 6.00 to 7.00 throughout.

Consider `CC(=O)c1ccc(-c2cccc(Nc3cc(C(=O)O)ccn3)n2)s1` [Compound B-58], for which the negative-log IC50 (pIC50) in experiment [1] (setting [5]) and in experiment [2] (setting [6]) was less than 6.00 in each case.

Take `CC(=O)N1CCN(C(=O)c2ccc(-c3cccc(Nc4cc(C)ccn4)n3)s2)CC1` [Compound B-85]: the pIC50 in experiment [1] (setting [5]) and in experiment [2] (setting [6]) was 6.00 to 7.00 throughout.

With `CC(=O)N[C@@H](COCc1ccccc1)c1ncc(-c2cccc(Nc3cc(C)ccn3)n2)s1` [Compound A-45], the negative-log IC50 (pIC50) in experiment [1] (setting [3]) and in experiment [2] (setting [4]) was less than 6.00 each time.
